{
  "source": "patent US7375109B2",
  "about": "“Glycine-substituted thieno[2,3-d]pyrimidines with combined LH and FSH agonistic activity” (N.V. Organon, priority 2001, dated 2008)",
  "key": {"[1]": {"target": "T1, human LH receptor (Homo sapiens, UniProt P22888)", "T1 construct": "expressed in transfected cells; host or cells: Chinese Hamster Ovary (CHO) cells, stably transfected; cotransfected with CRE-luciferase reporter", "T1 sequence (P22888 27-699)": "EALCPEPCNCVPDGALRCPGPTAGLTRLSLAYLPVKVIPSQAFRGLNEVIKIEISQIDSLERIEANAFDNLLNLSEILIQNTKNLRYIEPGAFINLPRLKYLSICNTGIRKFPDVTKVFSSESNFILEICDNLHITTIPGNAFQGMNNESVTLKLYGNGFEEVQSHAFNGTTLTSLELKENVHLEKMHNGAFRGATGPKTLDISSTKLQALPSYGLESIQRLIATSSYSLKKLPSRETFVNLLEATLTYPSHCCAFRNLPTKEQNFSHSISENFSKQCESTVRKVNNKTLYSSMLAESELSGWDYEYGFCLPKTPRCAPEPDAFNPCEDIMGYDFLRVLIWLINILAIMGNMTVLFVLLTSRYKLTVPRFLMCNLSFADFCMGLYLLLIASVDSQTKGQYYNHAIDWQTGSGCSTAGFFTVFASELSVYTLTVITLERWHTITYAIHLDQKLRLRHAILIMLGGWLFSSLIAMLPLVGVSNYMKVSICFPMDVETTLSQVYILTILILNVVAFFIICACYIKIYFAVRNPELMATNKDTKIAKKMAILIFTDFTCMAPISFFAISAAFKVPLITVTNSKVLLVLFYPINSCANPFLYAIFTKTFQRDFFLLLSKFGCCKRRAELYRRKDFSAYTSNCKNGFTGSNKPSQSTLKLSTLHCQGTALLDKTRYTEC", "experiment": "CHO-LH in vitro bioactivity (CRE-luciferase reporter)", "assay_type": "cell-based", "details": "CHO cells stably transfected with human LH receptor", "protocol": "(§1) It has been shown that compounds of the above mentioned formula I show agonistic LH and FSH activity. […] Typically the FSH activity ranges from an activity of about 0.1% of the LH agonist stimulation to about 10% of the LH agonist stimulation.\n(§2) LH agonistic activity of compounds were tested in Chinese Hamster Ovary (CHO) cells stably transfected with the human LH receptor and cotransfected with a cAMP responsive element (CRE)/promotor directing the expression of a firefly luciferase reporter gene. Binding of ligand to the Gs-coupled LH receptor will result in an increase of cAMP, which in turn will induce an increased transactivation of the luciferase reporter construct. The luciferase signal was quantified using a luminescence counter. For test compounds, EC50 values (concentration of test compound causing half-maximal (50%) stimulation) were calculated. For that purpose the software program GraphPad PRISM, version 3.0 (GraphPad software Inc., San Diego) was used."}, "[2]": {"target": "T2, human FSH receptor (Homo sapiens, UniProt P23945)", "T2 construct": "expressed in transfected cells; host or cells: CHO cells transfected with human FSH receptor and CRE-luciferase reporter", "T2 sequence (P23945 18-695)": "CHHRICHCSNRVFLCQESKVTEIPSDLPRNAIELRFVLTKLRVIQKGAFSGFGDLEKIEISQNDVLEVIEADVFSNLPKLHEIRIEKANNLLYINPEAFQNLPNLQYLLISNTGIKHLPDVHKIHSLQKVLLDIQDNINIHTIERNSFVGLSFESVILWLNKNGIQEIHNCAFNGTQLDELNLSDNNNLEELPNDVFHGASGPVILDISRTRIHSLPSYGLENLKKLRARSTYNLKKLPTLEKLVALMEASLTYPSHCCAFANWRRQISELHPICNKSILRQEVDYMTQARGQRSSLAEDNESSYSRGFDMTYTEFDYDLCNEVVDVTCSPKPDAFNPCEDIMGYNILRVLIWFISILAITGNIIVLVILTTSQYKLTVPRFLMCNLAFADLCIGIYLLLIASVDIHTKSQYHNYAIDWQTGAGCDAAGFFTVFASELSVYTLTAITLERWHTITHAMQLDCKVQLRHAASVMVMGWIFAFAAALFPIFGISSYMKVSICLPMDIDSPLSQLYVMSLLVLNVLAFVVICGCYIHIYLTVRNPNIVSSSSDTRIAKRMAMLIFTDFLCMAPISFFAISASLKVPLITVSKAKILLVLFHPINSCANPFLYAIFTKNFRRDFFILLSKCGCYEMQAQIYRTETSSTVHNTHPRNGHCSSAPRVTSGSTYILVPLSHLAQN", "experiment": "CHO-FSH in vitro bioactivity (CRE-luciferase reporter)", "assay_type": "cell-based", "details": "CHO cells transfected with human FSH receptor and luciferase reporter gene", "protocol": "as §1, §2\nIn a similar way FSH agonistic activity of compounds were tested in CHO cells transfected with the luciferase reporter gene and the human FSH receptor."}, "[3]": {"system": "immature female mice", "experiment": "In vivo bioactivity: ovulation induction in immature mice", "details": "immature female mice primed with urinary FSH (Humegon 12.5 IU/animal); 50 mg/kg about 48 hours later; killed 24 hours after treatment", "protocol": "To measure LH in vivo activity of compounds, ovulation induction in immature mice can be studied. In this assay immature female mice are primed with urinary FSH and approximately 48 hours later treated with a LH agonistic compound. The animals are killed after LH agonist treatment and the number of ova in the oviduct is microscopically assessed.\nTo measure in vivo activity of LH/FSH receptor agonistic compounds ovulation induction in immature mice were studied. In this assay immature female mice were primed with urinary FSH (Humegon 12.5 IU/animal). Approximately 48 hours later the animals were treated with a LH/FSH agonistic compound, the preparation of which is described in examples 1, 4, 9 and 17, at a dose-level of 50 mg/kg. The animals were killed 24 hours after LH/FSH agonist treatment and the number of ova in the oviduct was microscopically assessed. On average 10-15 animals were tested. The mean number of ova amounted 8 with the exception of the compound of example 17 (which was 0.4)."}},
  "data": [
    {"smiles": "CSc1nc(-c2cccc(NC(=O)CN(C)CCO)c2)c2c(N)c(C(=O)NC(C)(C)C)sc2n1", "note": "[Example 1, tert-Butyl 5-amino-2-methylthio-4-(3-((N-methyl-N-(2-hydroxyethyl)-glycinyl)-amino)-phenyl)-thieno[2,3-d]pyrimidine-6-carboxamide]", "values": [
      {"measurement": "EC50", "setting": "[1]", "value": 2.73, "unit": "nM"},
      {"measurement": "EC50", "setting": "[2]", "value": 56.9, "unit": "nM"},
      {"measurement": "mean number of ova in the oviduct", "setting": "[3]", "value": 8}
    ]},
    {"smiles": "CCNc1nc(-c2cccc(NC(=O)CN(CC)CCOC)c2)c2c(N)c(C(=O)NC(C)(C)C)sc2n1", "note": "[Example 17, tert-Butyl 5-amino-2-ethylamino-4-(3-((N-ethyl-N-(2-methoxyethyl)-glycinyl)-amino)-phenyl)-thieno[2,3-d]pyrimidine-6-carboxamide]", "values": [
      {"measurement": "EC50", "setting": "[1]", "value": 10.4, "unit": "nM"},
      {"measurement": "EC50", "setting": "[2]", "value": 1250, "unit": "nM"},
      {"measurement": "mean number of ova in the oviduct", "setting": "[3]", "value": 0.4}
    ]},
    {"smiles": "CCN(CCOC)CC(=O)Nc1cccc(-c2nc(SC)nc3sc(C(=O)NC(C)(C)C)c(N)c23)c1", "note": "[Example 4, tert-Butyl 5-amino-2-methylthio-4-(3-((N-ethyl-N-(2-methoxyethyl)-glycinyl)-amino)-phenyl)-thieno[2,3-d]pyrimidine-6-carboxamide]", "values": [
      {"measurement": "EC50", "setting": "[1]", "value": 7, "unit": "nM"},
      {"measurement": "EC50", "setting": "[2]", "value": 101, "unit": "nM"},
      {"measurement": "mean number of ova in the oviduct", "setting": "[3]", "value": 8}
    ]}
  ]
}
